Data reported in ChEMBL document CHEMBL3421625, “Discovery and optimization of novel antagonists to the human neurokinin-3 receptor for the treatment of sex-hormone disorders (Part I)” (J Med Chem, 2015).
In brackets after ≈: the same amount, converted by molar mass.

Assays:
[1] = Lipophilicity, log D of the compound at pH 7.4; type: physicochemical; details: buffer
[2] = Solubility of the compound in PBS buffer at pH 7.4 by shake-flask method; type: physicochemical
Cytochrome P450 3A4 = Cytochrome P450 3A4 (Homo sapiens, UniProt P08684); experiment: Inhibition of CYP3A4 (unknown origin) by luciferase reporter assay in presence of NADPH regeneration system; type: ADME
Sequence of Cytochrome P450 3A4 (P08684 whole entry): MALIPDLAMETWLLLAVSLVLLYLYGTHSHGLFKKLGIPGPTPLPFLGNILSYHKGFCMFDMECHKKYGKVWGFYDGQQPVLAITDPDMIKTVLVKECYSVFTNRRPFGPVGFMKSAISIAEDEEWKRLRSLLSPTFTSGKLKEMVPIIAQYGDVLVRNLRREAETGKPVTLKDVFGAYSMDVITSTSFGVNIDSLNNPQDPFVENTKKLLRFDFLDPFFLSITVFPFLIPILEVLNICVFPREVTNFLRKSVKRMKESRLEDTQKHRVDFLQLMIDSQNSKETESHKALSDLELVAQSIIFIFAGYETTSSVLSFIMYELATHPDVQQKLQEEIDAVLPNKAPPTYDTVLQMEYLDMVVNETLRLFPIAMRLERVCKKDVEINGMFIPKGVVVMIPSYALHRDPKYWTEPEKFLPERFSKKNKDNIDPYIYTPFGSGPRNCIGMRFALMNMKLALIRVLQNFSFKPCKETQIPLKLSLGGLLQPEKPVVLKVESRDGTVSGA

Cytochrome P450 2D6 = Cytochrome P450 2D6 (Homo sapiens, UniProt P10635); experiment: Inhibition of CYP2D6 (unknown origin) by luciferase reporter assay in presence of NADPH regeneration system; type: ADME
Sequence of Cytochrome P450 2D6 (P10635 whole entry): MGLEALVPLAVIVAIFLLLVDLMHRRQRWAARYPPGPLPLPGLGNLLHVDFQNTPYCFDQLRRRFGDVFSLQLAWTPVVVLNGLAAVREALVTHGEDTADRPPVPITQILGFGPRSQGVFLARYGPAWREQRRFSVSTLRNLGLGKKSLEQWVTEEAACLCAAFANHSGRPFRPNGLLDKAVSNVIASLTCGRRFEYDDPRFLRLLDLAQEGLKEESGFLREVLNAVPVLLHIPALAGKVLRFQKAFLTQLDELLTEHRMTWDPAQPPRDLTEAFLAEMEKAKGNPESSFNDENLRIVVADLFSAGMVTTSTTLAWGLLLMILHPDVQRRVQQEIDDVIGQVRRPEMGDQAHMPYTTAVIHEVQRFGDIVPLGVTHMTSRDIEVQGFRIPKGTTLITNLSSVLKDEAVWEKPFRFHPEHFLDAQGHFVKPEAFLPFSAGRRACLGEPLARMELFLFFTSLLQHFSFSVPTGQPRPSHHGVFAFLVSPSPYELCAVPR

Cytochrome P450 2C9 = Cytochrome P450 2C9 (Homo sapiens, UniProt P11712); experiment: Inhibition of CYP2C9 (unknown origin) by luciferase reporter assay in presence of NADPH regeneration system; type: ADME
Sequence of Cytochrome P450 2C9 (P11712 whole entry): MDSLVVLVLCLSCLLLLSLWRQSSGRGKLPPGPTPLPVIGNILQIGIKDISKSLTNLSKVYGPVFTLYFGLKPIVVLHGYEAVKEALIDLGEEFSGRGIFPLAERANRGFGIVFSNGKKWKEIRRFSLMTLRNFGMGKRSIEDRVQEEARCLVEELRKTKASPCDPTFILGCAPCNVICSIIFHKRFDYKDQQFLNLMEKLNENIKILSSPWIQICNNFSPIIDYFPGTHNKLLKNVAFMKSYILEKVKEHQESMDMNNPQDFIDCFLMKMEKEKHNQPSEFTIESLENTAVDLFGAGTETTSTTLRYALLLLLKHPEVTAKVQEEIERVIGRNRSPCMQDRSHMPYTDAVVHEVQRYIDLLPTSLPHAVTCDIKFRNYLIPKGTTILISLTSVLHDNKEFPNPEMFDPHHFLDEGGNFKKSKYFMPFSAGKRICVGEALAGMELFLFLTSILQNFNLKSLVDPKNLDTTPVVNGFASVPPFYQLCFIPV

Cytochrome P450 2C19 = Cytochrome P450 2C19 (Homo sapiens, UniProt P33261); experiment: Inhibition of CYP2C19 (unknown origin) by luciferase reporter assay in presence of NADPH regeneration system
Sequence of Cytochrome P450 2C19 (P33261 whole entry): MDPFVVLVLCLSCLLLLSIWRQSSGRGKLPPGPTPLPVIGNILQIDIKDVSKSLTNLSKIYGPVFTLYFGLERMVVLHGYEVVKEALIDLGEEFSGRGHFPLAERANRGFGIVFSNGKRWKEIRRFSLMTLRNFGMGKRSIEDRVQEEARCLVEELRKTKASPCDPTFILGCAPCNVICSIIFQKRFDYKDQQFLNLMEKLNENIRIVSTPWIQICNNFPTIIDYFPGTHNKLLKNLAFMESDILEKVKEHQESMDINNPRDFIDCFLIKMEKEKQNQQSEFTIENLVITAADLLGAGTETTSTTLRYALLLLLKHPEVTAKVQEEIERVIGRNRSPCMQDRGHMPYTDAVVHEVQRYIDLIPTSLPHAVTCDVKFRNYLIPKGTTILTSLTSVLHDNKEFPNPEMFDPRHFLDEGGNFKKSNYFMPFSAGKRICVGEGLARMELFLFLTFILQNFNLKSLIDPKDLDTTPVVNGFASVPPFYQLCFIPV

Cytochrome P450 1A2 = biological target: T1, Cytochrome P450 1A2 (Homo sapiens, UniProt P05177); experiment: Inhibition of CYP1A2 (unknown origin) by luciferase reporter assay in presence of NADPH regeneration system; type: ADME
T1 sequence (P05177 whole entry): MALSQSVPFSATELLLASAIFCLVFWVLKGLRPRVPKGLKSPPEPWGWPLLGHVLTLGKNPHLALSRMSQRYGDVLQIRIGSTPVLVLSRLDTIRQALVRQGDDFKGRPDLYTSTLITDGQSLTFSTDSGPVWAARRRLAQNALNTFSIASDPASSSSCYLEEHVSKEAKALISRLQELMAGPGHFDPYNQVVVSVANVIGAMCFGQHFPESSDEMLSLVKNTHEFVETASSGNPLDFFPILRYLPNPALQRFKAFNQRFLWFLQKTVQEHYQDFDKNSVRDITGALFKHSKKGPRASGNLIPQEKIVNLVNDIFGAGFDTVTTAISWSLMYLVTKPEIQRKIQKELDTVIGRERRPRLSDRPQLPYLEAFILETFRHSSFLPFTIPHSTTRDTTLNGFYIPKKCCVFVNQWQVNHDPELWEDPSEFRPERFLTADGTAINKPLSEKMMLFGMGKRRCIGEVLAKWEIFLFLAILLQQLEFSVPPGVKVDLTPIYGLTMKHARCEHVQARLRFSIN

[3] = biological target: T2, Gonadotropin-releasing hormone receptor (Homo sapiens) (UniProt P30968); experiment: Inhibition of GnRH-R (unknown origin) at 10 uM relative to control
T2 sequence (whole entry): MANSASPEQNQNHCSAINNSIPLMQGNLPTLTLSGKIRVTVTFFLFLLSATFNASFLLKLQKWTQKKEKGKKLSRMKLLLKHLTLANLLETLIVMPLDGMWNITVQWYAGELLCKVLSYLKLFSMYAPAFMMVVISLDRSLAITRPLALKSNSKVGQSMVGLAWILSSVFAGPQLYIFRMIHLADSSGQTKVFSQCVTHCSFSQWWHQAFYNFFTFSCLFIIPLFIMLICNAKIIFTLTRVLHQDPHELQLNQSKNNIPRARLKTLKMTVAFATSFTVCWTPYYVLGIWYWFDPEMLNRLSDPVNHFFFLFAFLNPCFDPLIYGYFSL

[4] = Fraction unbound in rat plasma at 5 uM after 4 hrs by equilibrium dialysis method; type: ADME, cell-free
[5] = Total systemic clearance in Sprague-Dawley rat at 1 mg/kg, iv by LC-MS/MS analysis; type: ADME, organism-based; parameters: dose 1 mg/kg, route intravenous; details: in vivo
Rattus norvegicus [6] = experiment: Unbound AUC in Sprague-Dawley rat at 1 mg/kg, iv by LC-MS/MS analysis; type: ADME, organism-based; parameters: dose 1 mg/kg, route intravenous; details: in vivo
Rattus norvegicus [7] = experiment: Unbound AUC in Sprague-Dawley rat at 3 mg/kg, po by LC-MS/MS analysis; type: ADME, organism-based; parameters: dose 3 mg/kg, route oral; details: in vivo
Rattus norvegicus [8] = experiment: Unbound Cmax in Sprague-Dawley rat at 3 mg/kg, po by LC-MS/MS analysis; type: ADME, organism-based; parameters: dose 3 mg/kg, route oral; details: in vivo
[9] = Fraction unbound in rat brain at 5 uM after 4 hrs by equilibrium dialysis method; type: ADME, tissue-based
[10] = Ratio of unbound drug level in brain to plasma in Sprague-Dawley rat at 1 mg/kg, iv measured at 10 mins; details: brain and plasma
[11] = Ratio of unbound drug level in brain to plasma in Sprague-Dawley rat at 1 mg/kg, iv measured at 60 mins; details: brain and plasma
NK-3 receptor = biological target: T3, NK-3 receptor (Macaca mulatta, UniProt Q2WGM0)
T3 sequence (Q2WGM0 whole entry): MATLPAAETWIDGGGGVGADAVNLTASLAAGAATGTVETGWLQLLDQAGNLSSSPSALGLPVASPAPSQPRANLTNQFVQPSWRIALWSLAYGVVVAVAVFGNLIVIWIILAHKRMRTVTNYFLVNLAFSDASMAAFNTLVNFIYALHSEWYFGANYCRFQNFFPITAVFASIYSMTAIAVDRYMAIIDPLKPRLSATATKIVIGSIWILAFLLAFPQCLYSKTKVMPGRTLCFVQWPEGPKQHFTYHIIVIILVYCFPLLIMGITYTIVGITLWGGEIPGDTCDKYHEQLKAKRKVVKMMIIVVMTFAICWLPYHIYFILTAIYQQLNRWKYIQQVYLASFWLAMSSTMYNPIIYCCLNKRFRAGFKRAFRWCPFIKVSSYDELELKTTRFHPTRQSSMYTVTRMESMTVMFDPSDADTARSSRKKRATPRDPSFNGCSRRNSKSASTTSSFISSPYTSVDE
Description: Displacement of [3H]-SB222200 from monkey NK3R after 90 mins by scintillation counting analysis

Neuromedin-K receptor = biological target: T4, Neuromedin-K receptor (Rattus norvegicus, UniProt P16177)
T4 sequence (P16177 whole entry): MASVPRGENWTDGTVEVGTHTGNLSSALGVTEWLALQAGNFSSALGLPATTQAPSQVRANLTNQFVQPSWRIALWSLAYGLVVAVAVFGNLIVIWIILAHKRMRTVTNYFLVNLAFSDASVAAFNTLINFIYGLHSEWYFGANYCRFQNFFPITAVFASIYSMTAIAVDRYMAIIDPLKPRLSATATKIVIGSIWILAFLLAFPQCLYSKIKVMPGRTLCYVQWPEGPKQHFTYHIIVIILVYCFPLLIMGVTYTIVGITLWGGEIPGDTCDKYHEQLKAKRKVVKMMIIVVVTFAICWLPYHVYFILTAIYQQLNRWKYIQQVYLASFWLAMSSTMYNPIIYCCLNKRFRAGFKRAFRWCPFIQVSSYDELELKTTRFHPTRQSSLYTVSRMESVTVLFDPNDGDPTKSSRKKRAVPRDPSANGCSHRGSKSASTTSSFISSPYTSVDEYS
Description: Displacement of [3H]-SB222200 from rat NK3R after 90 mins by scintillation counting analysis

in vivo [12] = details: Sprague-Dawley, rat, iv, 1 mg/kg
Description: Volume of distribution at steady state in Sprague-Dawley rat at 1 mg/kg, iv by LC-MS/MS analysis

in vivo [13] = details: Sprague-Dawley, rat, po, 3 mg/kg

SMILES | solubility thermodynamic [2] [µM] | IC50 (Cytochrome P450 3A4) [µM] | IC50 (Cytochrome P450 2D6) [µM] | IC50 (Cytochrome P450 2C9) [µM] | IC50 (Cytochrome P450 2C19) [µM] | IC50 (Cytochrome P450 1A2) [µM] | inhibition [3] [%] | fraction unbound at 4 h, 5 µM [4] | clearance [5] [mL/min/kg] | fAUC (Rattus norvegicus [6]) [µM·min] | fAUC (Rattus norvegicus [7]) [µM·min] | fCmax (Rattus norvegicus [8]) [nM] | fraction unbound at 4 h, 5 µM [9] | Kp uu at 10 min [10] | Kp uu at 1 h [11] | Ki (NK-3 receptor) [µM] | Ki (Neuromedin-K receptor) [µM] | Vd (in vivo [12]) [L/kg] | Tmax (in vivo [13]) [min] | other results
Cc1nc(-c2nnc3n2CCN(C(=O)c2ccc(-c4cccs4)cc2)[C@@H]3C)cs1 | 118 (≈ 49.7 µg/mL) | 50 | > 100 | 21 | 34 | 26 | 30 | 0.055 | 7.4 | 16.9 | 60.3 | 443 | 0.028 | 0.2 | 0.1 | 0.02 | 0.076 | 1.4 | 45 | logD ([1]; read-out: logD): 3.1
C[C@@H]1c2nnc(-c3csc(-c4ccc(F)cc4F)n3)n2CCN1C(=O)c1ccc(-c2cccs2)cc1 | 0.4 (≈ 0.208 µg/mL) | 19 | 7 | 3 | 4 | 21 | 35 | 0.0008 | 8.9 | 0.2 | 0.1 | 0.14 | 0.001 | 1.9 | 2.5 | 0.00398 | 0.013 | 4.1 | 45 | logD [1]: 5
